This note sets out measurements from patent EP1614683B1, “Indazole compounds and pharmaceutical compositions for inhibiting protein kinases, and methods for their use” (priority 1999, dated 2001).

The target in test [1] is LCK tyrosine kinase (Homo sapiens, UniProt P06239, C224D/P223M). The experiment in a line: LCK spectrophotometric assay. Conditions: Table 1; compound concentration 1 µM; read-out: Lck-P* (% inhibition). Type of test: biochemical. The method, then:
The spectrophotometric assay was carried out as described above for VEGF-R2, except for the following changes in concentration: LCK = 60 nM, MgCl2 = 0 mM, poly(E4Y1) = 20 mM.

The target of test [2] is human FGF-R1 (Homo sapiens, UniProt P11362, C488A/C584S/L457V). The experiment in a line: FGF-R spectrophotometric assay. In kind it is biochemical. As to conditions: read-out: FGF-P* (% inhibition). How it is done: The spectrophotometric assay was carried out as described above for VEGF-R2, except for the following changes in concentration: FGF-R = 50 nM, ATP = 2 mM, and poly(E4Y1) =15 mM.
Chain of human FGF-R1 (P11362 456-766 L457V/C488A/C584S): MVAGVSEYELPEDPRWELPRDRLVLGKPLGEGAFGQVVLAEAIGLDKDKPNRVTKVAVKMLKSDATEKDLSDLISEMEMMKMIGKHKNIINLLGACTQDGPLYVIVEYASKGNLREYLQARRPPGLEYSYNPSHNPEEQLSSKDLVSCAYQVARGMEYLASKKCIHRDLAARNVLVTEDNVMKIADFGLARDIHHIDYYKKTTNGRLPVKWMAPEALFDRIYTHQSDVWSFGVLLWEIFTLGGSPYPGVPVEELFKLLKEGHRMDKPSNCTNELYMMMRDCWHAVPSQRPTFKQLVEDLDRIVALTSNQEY

The test system of test [3] is human umbilical vein endothelial cells (HUVEC). The experiment in a line: HUVEC proliferation assay (VEGF-stimulated, MTT). In kind it is cell-based. As to conditions: Homo sapiens, HUVEC, Table 1; + albumin; read-out: HUVEC + albumin IC50. The method, then: This assay determines the ability of a test compound to inhibit the growth factor-stimulated proliferation of human umbilical vein endothelial cells ("HUVEC"). HUVEC cells (passage 3-4, Clonetics, Corp.) were thawed into EGM2 culture medium (Clonetics Corp) in T75 flasks. Fresh EGM2 medium was added to the flasks 24 hours later. Four or five days later, cells were exposed to another culture medium (F12K medium supplemented with 10% fetal bovine serum (FBS), 60 µg/mL endothelial cell growth supplement (ECGS), and 0.1 mg/mL heparin). Exponentially-growing HUVEC cells were used in experiments thereafter. Ten to twelve thousand HUVEC cells were plated in 96-well dishes in 100 µl of rich, culture medium (described above). The cells were allowed to attach for 24 hours in this medium. The medium was then removed by aspiration and 105 µl of starvation media (F12K+1% FBS) was added to each well. After 24 hours, 15 µl of test agent dissolved in 1% DMSO in starvation medium or this vehicle alone was added into each treatment well; the final DMSO concentration was 0.1%. One hour later, 30 µl of VEGF (30 ng/mL) in starvation media was added to all wells except those containing untreated controls; the final VEGF concentration was 6 ng/mL. Cellular proliferation was quantified 72 hours later by MTT dye reduction, at which time cells were exposed for 4 hours MTT (Promega Corp.).

The target in test [4] is unphosphorylated VEGF-R2Δ50 (Homo sapiens, UniProt P35968, DEL940-989/E990V). The experiment in a line: biochemical. Conditions: for inhibition at 0.05 µM: read-out: FLVK ** (% inhibition); for inhibition at 1 µM: read-out: FLVK* (% inhibition).
Chain of unphosphorylated VEGF-R2Δ50 (P35968 with tags, fused parts or gaps DEL940-989/E990V limits assumed): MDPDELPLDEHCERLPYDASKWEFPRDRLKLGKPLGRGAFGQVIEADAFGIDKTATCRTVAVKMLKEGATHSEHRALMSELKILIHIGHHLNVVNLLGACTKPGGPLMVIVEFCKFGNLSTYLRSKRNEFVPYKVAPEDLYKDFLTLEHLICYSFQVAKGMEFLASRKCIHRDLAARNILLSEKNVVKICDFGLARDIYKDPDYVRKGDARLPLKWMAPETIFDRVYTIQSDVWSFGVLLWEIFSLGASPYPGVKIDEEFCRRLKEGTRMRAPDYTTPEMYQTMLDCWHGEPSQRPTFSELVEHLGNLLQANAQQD
[5] abbreviates: Table 1, compound concentration 1 µM.

Each structure is given as a SMILES string. pIC50: −log10 of the molar value. Like-named read-outs stand apart in the source and are kept apart here.

Chain of LCK tyrosine kinase (P06239 223-509 P223M/C224D): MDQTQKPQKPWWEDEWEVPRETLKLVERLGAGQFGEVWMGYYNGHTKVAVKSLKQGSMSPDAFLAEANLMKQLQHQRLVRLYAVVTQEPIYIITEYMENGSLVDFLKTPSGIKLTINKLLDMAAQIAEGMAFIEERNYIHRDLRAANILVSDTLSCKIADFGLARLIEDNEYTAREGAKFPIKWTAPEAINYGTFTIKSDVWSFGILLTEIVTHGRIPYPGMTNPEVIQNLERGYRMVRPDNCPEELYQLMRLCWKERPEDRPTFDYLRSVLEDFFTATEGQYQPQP

Take `O=C(N[C@@H]1C[C@H]1c1ccccc1)c1ccccc1Sc1ccc2c(/C=C/c3ccccn3)n[nH]c2c1` (racemic) [Reference Example 34]: the inhibition (commonly the drop in the measured response relative to a control, in per cent) at 1 µM amounted to 78% in test [1] and 95% in test [2] (setting [5]). Moreover, the negative logarithm of the IC50 (pIC50) (usually −log10 of the IC50, conventionally taken in molar units) in test [3] was 7.82. The inhibition at 0.05 µM in test [4] came to 97%.

On to `Cc1cc(C(=O)Nc2cc(Nc3ccc4c(/C=C/c5ccccn5)n[nH]c4c3)c(F)cc2C)n(C)n1` [Example 48(b), 6-[N-(5-((1,3-Dimethyl-1H-pyrazol-5-yl)carboxamido)-2-fluoro-4-methylphenyl)amino]-3-E-[2-(pyridin-2-yl)ethenyl]-1H-indazole], for which the inhibition at 1 µM in test [1] came out at 6%; in test [2] (setting [5]), 77%. The inhibition at 0.05 µM in test [4] amounted to 97%.

Consider `COc1cccc(/C=C/c2n[nH]c3cc(-c4ccncc4)ccc23)c1` [Reference Example 29(e)], for which the inhibition at 1 µM in test [4] was 33%.

`C(=C\c1n[nH]c2cc(-c3ccncc3)ccc12)/c1nc2ccccc2[nH]1` [Reference Example 29(q), 6-pyrid-4-yl-3-E-[2-(benzimidazol-2-yl)ethenyl]-1H-indazole]: in test [4], the inhibition at 1 µM was determined as 11%.

Regarding `CC(C)NC(=O)c1ccccc1Sc1ccc2c(/C=C/c3ccccn3)n[nH]c2c1` [Reference Example 35(b), 6-[2-(i-Propylcarbamoyl)phenylsulfanyl]-3-E-[2-(pyridin-2-yl)ethenyl]-1H-indazole], the figures for the inhibition at 1 µM in test [1] and in test [2] (setting [5]) were 12% and 59%, respectively. Further, the negative logarithm of the IC50 (pIC50) in test [3] was 7.46. Besides, the inhibition at 0.05 µM in test [4] is 49%.

`NC(=O)c1ccccc1Sc1ccc2c(/C=C/c3ccccn3)n[nH]c2c1` [Reference Example 35(d), 6-(2-Carbamoylphenylsulfanyl)-3-E-[2-(pyridin-2-yl)ethenyl]-1H-indazole]: the inhibition at 0.05 µM in test [4] was found to be 76%.

As to `CNCCNC(=O)c1ccccc1Sc1ccc2c(/C=C/c3ccccn3)n[nH]c2c1` [Reference Example 35(gg), 6-[2-(2-(methylamino)ethylcarbamoyl)phenylsulfanyl]-3-E-[2-(pyridin-2-yl)ethenyl]-1H-indazole], the inhibition at 0.05 µM in test [4] stood at 23%.

As to `O=C(NCCc1cccs1)c1ccccc1Sc1ccc2c(/C=C/c3ccccn3)n[nH]c2c1` [Reference Example 35(hh), 6-[2-(2-(Thien-2-yl)ethylcarbamoyl)phenylsulfanyl]-3-E-[2-(pyridin-2-yl)ethenyl]-1H-indazole], the inhibition at 1 µM in test [1] was 34%; in test [2] (setting [5]) it was 73%. In addition, in test [3], the pIC50 was 8.15. The inhibition at 0.05 µM in test [4] came to 100%.

Regarding `CN(O)C(=O)c1ccccc1Sc1ccc2c(/C=C/c3ccccn3)n[nH]c2c1` [Reference Example 35(o), 6-[2-(N-Hydroxy-N-methylcarbamoyl)phenylsufanyl]-3-E-[2-(pyridin-2-yl)ethenyl]-1H-indazole], the inhibition at 1 µM in test [1] was 17%; in test [2] (setting [5]) it was 44%. The inhibition at 0.05 µM in test [4] came to 39%.

`O=C(NCc1ccncc1)c1ccccc1Sc1ccc2c(/C=C/c3ccccn3)n[nH]c2c1` [Reference Example 35(p), 6-[2-((Pyrid-4-yl)methylcarbamoyl)phenylsulfanyl]-3-E-[2-(pyridin-2-yl)ethenyl]-1H-indazole]: the inhibition at 1 µM amounted to 5% in test [1] and 11% in test [2] (setting [5]). For the same molecule, the inhibition at 0.05 µM in test [4] stood at 62%.

For the molecule `Cc1ccccc1C(=O)NNC(=O)c1ccccc1Sc1ccc2c(/C=C/c3ccccn3)n[nH]c2c1` [Reference Example 35(q), 6-[2-((2-Methylphenylhydrazido)carbonyl)phenylsulfanyl]-3-E-[2-(pyridin-2-yl)ethenyl]-1H-indazole], the inhibition at 1 µM came out at 42% in test [1] and 51% in test [2] (setting [5]). Further, the pIC50 in test [3] is 7.74. Besides, in test [4], the inhibition at 0.05 µM came to 92%.

For the molecule `N#CCNC(=O)c1ccccc1Sc1ccc2c(/C=C/c3ccccn3)n[nH]c2c1` [Reference Example 35(w), 6-[2-(Cyanomethylcarbamoyl)phenylsulfanyl]-3-E-[2-(pyridin-2-yl)ethenyl]-1H-indazole], the pIC50 in test [3] was 7.46. For the same molecule, the inhibition at 0.05 µM in test [4] was determined as 59%.

Regarding `Cn1ccnc1/C=N/NC(=O)c1ccccc1Sc1ccc2c(/C=C/c3ccccn3)n[nH]c2c1` [Reference Example 36(a)], the inhibition at 1 µM in test [1] stood at 19%; in test [2] (setting [5]), 38%. Also, in test [3], the pIC50 is 7.72. Besides, in test [4], the inhibition at 0.05 µM worked out at 87%.

With `O=C(N/N=C/c1ccccn1)c1ccccc1Sc1ccc2c(/C=C/c3ccccn3)n[nH]c2c1` [Reference Example 36(b)], the inhibition at 1 µM in test [1] is 22%; in test [2] (setting [5]) it was 43%. The inhibition at 0.05 µM in test [4] was 85%.

For the molecule `O=C(N/N=C/C(F)(F)F)c1ccccc1Sc1ccc2c(/C=C/c3ccccn3)n[nH]c2c1` [Reference Example 36(c)], the figures for the inhibition at 1 µM in test [1] and in test [2] (setting [5]) were 28% and 60%, respectively. For the same molecule, in test [4], the inhibition at 0.05 µM is 89%.

For the molecule `O=C(NC1CC1)c1cccc(F)c1Sc1ccc2c(/C=C/c3ccccn3)n[nH]c2c1` [Reference Example 37(b), 6-[6-Fluoro-2-(cyclopropylcarbamoyl)phenylsulfanyl]-3-E-[2-(pyridin-2-yl)ethenyl]-1H-indazole], the inhibition at 1 µM in test [1] turned out to be 8%; in test [2] (setting [5]), 36%. Moreover, in test [3], the pIC50 was 7.00 to 7.52. The inhibition at 0.05 µM in test [4] came out at 48%.

In the case of `CNC(=O)c1cccc(F)c1Sc1ccc2c(/C=C/c3ccccn3)n[nH]c2c1` [Reference Example 37(d), 6-[6-Fluoro-2-(methylcarbamoyl)phenylsulfanyl]-3-E-[2-(pyridin-2-yl)ethenyl]-1H-indazole], the results for the inhibition at 1 µM in test [1] and in test [2] (setting [5]) were 10% and 38%, respectively. For the same molecule, the inhibition at 0.05 µM in test [4] stood at 26%.

Turning to `Cc1ccc(C(=O)c2ccc3c(/C=C/c4ccccn4)n[nH]c3c2)cc1N` [Reference Example 40(b), 6-(3-Amino-4-methyl-benzoyl)-3-E-[2-(pyridin-2-yl)ethenyl]-1H-indazole], the inhibition at 1 µM was 32% in test [1] and 92% in test [2] (setting [5]). In addition, the inhibition at 0.05 µM in test [4] worked out at 89%.

As for `Cc1cc(C)c(C(=O)c2ccc3c(/C=C/c4ccccn4)n[nH]c3c2)cc1N` [Reference Example 40(c), 6-(5-Amino-2,4-dimethyl-benzoyl)-3-E-[2-(pyridin-2-yl)ethenyl]-1H-indazole], the inhibition at 1 µM in test [1] worked out at 28%; in test [2] (setting [5]), 59%. Moreover, the inhibition at 0.05 µM in test [4] amounted to 24%.

Take `O=C(Nc1cccc(C(=O)c2ccc3c(/C=C/c4ccccn4)n[nH]c3c2)c1)Oc1ccccc1` [Reference Example 41(cc), 6-[3-(phenoxyamido)benzoyl]-3-E-[2-(pyridin-2-yl)ethenyl]-1H-indazole]: the inhibition at 1 µM in test [1] was 41%; in test [2], 95%. Also, the inhibition at 0.05 µM in test [4] worked out at 97%.

On to `CC(=O)Nc1cc(C(=O)c2ccc3c(/C=C/c4ccccn4)n[nH]c3c2)ccc1C` [Reference Example 41(gg), 6-(3-acetamido-4-methylbenzoyl)-3-E-[2-(pyridin-2-yl)ethenyl]-1H-indazole], for which the inhibition at 1 µM in test [1] stood at 27%. The pIC50 in test [3] is 8.02. For the same molecule, the inhibition at 0.05 µM in test [4] stood at 84%.

Turning to `CC(=O)Nc1cc(C(=O)c2ccc3c(/C=C/c4ccccn4)n[nH]c3c2)c(C)cc1C` [Reference Example 41(nn), 6-(5-acetamido-2,4-dimethylbenzoyl)-3-E-[2-(pyridin-2-yl)ethenyl]-1H-indazole], the values for the inhibition at 1 µM in test [1] and in test [2] (setting [5]) were 7% and 91%, respectively. Further, the inhibition at 0.05 µM in test [4] was 57%.

As for `Cc1cc(C(=O)Nc2cccc(C(=O)c3ccc4c(/C=C/c5ccccn5)n[nH]c4c3)c2)cc(Cl)n1` [Reference Example 41(q), 6-[3-((2-chloro-6-methylpyridin-4-yl)carboxamido)benzoyl]-3-E-[2-(pyridin-2-yl)ethenyl]-1H-indazole], the inhibition at 1 µM turned out to be 53% in test [1] and 91% in test [2] (setting [5]). Moreover, the inhibition at 0.05 µM in test [4] worked out at 100%.

As to `Cc1cc(C(=O)Nc2cccc(C(=O)c3ccc4c(/C=C/c5ccccn5)n[nH]c4c3)c2)n(C(C)C)n1` [Reference Example 41(x), 6-[3-((1-Isopropyl-3-methyl-1H-pyrazol-5-yl)carboxamido)benzoyl]-3-E-[2-(pyridin-2-yl)ethenyl]-1H-indazole], the inhibition at 1 µM in test [1] came out at 66%. In addition, in test [3], the pIC50 is 8.34. Besides, the inhibition at 0.05 µM in test [4] was found to be 98%.
